The structures appear in SMILES notation.

One assay concerns HCV replicon. The assay can be described thus: HCV replicon luciferase reporter assay. Also noted: scale not given here. The assay is classed as cell-based. The note with it: Hepatitis C virus. As to the method: The inhibitory activity of certain exemplary compounds of the invention was confirmed using an HCV replicon assay. The HCV replicon can include such features as the HCV IRES, the HCV 3′ untranslated region, selected HCV genes encoding HCV polypeptides, selectable markers, and a reporter gene such as luciferase, GFP, etc. In the assay, actively dividing replicon-comprising cells were seeded at a density of between about 5,000 and 7,500 cells/well onto 96 well plates (about 90 μl of cells per well) and incubated at 37° C. and 5% CO2 for 24 hours. Then, the test compound (in a volume of about 10 μL) was added at various concentrations to each well and the cells were incubated for an additional 24-48 hours. The cells were harvested, and HCV replication or translation was monitored via a reporter assay, e.g., a luciferase reporter assay. The media was aspirated from each cell and Bright-Glo ([…].) luciferase assay reagents were added to each well according to the manufacturer's instructions. In this assay, the amount of test compound that yielded a 50% reduction in luciferase activity (IC50) was determined.
For orientation: In antiviral work, replicon cells carry a viral genome segment that copies itself.
Usually IC50 stands for the concentration that inhibits the measured activity by half. With `O=C(N1CCc2ccc(S(=O)(=O)NCCCNc3nsc4ccccc34)cc2C1)C(F)(F)F` [Compound 252, N-(3-(benzo[d]isothiazol-3-ylamino)propyl)-2-(2,2,2-trifluoroacetyl)-1,2,3,4-tetrahydroisoquinoline-7-sulfonamide], the IC50 is below 5 µM.

The assay is the same for the next values; noted with them: Hepatitis C virus, Table 5; read-out: IC50.
Consider `CC(C)[C@H](NC(=O)OC(C)(C)C)C(=O)NCCNc1nsc2ccccc12` [Entry 18, (S)-tert-Butyl 1-(2-(Benzo[d]isothiazol-3-ylamino)ethylamino)-3-methyl-1-oxobutan-2-ylcarbamate], for which the IC50 is below 5 µM. Consider `c1ccc2c(NCCCNc3nsc4ccccc34)nsc2c1` [Compound 434, N^1,N^3-di(benzo[d]isothiazol-3-yl)propane-1,3-diamine], for which the IC50 was below 5 µM. The same measure, in the same setting: the result for `CCCCNC(=O)c1ccc(C(=O)NCCNc2nsc3ccccc23)cc1` [Compound 422, N^1-(2-(benzo[d]isothiazol-3-ylamino)ethyl)-N^4-butylterephthalamide] reads below 5 µM. Same read-out and setting: the result for `O=C(NCCNc1nsc2ccccc12)c1cccc(-c2cccc3cccnc23)c1` [Compound 374, N-(2-(benzo[d]isothiazol-3-ylamino)ethyl)-3-(quinolin-8-yl)benzamide] reads below 5 µM; that for `COc1ccc(-c2ccc(CN(CCCNc3nsc4ccccc34)C(=O)CC#N)cc2)cc1` [Compound 319, N-(3-(benzo[d]isothiazol-3-ylamino)propyl)-2-cyano-N-((4′-methoxybiphenyl-4-yl)methyl)acetamide], below 5 µM. On the same count and under the same terms, the result for `COc1ccc(S(=O)(=O)NCCCNc2nsc3ccccc23)cc1` [Compound 251, N-(3-(benzo[d]isothiazol-3-ylamino)propyl)-4-methoxybenzenesulfonamide] reads below 5 µM; that for `COc1ccc(OC)c(-c2cccc(C(=O)NCCCNc3nsc4ccccc34)c2)c1` [Compound 382, N-(3-(benzo[d]isothiazol-3-ylamino)propyl)-3′,6′-dimethoxybiphenyl-3-carboxamide], below 5 µM; that for `COc1cccc(COc2ccc(C(=O)NCCCNc3nsc4ccccc34)cc2)c1` [Entry 236, N-(3-(benzo[d]isothiazol-3-ylamino)propyl)-4-(3-methoxybenzyloxy)benzamide], below 5 µM. With `O=Cc1cccc(C(=O)NCCNc2nsc3ccccc23)c1` [Compound 414, N-(2-(benzo[d]isothiazol-3-ylamino)ethyl)-3-formylbenzamide], the IC50 is above 5 µM. For the molecule `COc1ccc(CNS(=O)(=O)c2ccc3snc(NCCCNC(=O)c4ccc(-c5ccc(OC)cc5)cc4)c3c2)cc1` [Compound 515, 4′-methoxy-N-(3-(5-(N-(4-methoxybenzyl)sulfamoyl)benzo[d]isothiazol-3-ylamino)propyl)biphenyl-4-carboxamide], the IC50 was above 5 µM. Still for that read-out and setting: under `COc1ccc(Cl)cc1-c1ccc(CNCCCNc2nsc3ccccc23)cc1` [Compound 294, N^1-(benzo[d]isothiazol-3-yl)-N^3-((5′-chloro-2′-methoxybiphenyl-4-yl)methyl)propane-1,3-diamine] stands below 5 µM. On to `CCOc1ccc(C)c(-c2cccc(C(=O)NCCCNc3nsc4ccccc34)c2)c1` [Compound 381, N-(3-(benzo[d]isothiazol-3-ylamino)propyl)-3′-ethoxy-6′-methylbiphenyl-3-carboxamide], for which the IC50 is below 5 µM. Turning to `O=C(NCCNc1nsc2ccccc12)c1cccc(-c2cnc3ccccc3c2)c1` [Compound 375, N-(2-(benzo[d]isothiazol-3-ylamino)ethyl)-3-(quinolin-3-yl)benzamide], the IC50 was below 5 µM. With `O=C(O)COc1ccc(C(=O)NCCCNc2nsc3ccccc23)cc1` [Entry 238, 2-(4-(3-(benzo[d]isothiazol-3-ylamino)propylcarbamoyl)phenoxy) acetic acid], the IC50 was above 5 µM. Still for that read-out and setting: under `CCCC(=O)Nc1ccc2sc(C(=O)NCCCNc3nsc4ccccc34)cc2c1` [Compound 457, N-(3-(benzo[d]isothiazol-3-ylamino)propyl)-5-butyramidobenzo[b]thiophene-2-carboxamide] stands below 5 µM; under `O=S(=O)(NCCCNc1nsc2ccccc12)c1cc(C(F)(F)F)cc(C(F)(F)F)c1` [Compound 246, N-(3-(benzo[d]isothiazol-3-ylamino)propyl)-3,5-bis(trifluoromethyl)benzenesulfonamide], below 5 µM.

On to `O=C(NCCCNc1nsc2ccccc12)c1cccc(I)c1` [Compound 386, N-(3-(benzo[d]isothiazol-3-ylamino)propyl)-3-iodobenzamide], for which the IC50 was below 5 µM. The same measure, in the same setting: the result for `O=C(NCCCNc1nsc2ccccc12)c1ccc(OCCN2CCOCC2)c(Br)c1` [Compound 397, N-(3-(benzo[d]isothiazol-3-ylamino)propyl)-3-bromo-4-(2-morpholinoethoxy)benzamide] reads below 5 µM; that for `O=C(NCCCNc1nsc2ccccc12)c1ccc2[nH]cnc2c1` [Compound 449, N-(3-(benzo[d]isothiazol-3-ylamino)propyl)-1H-benzo[d]imidazole-5-carboxamide], above 5 µM; that for `O=C(NCCCNc1nsc2ccccc12)c1cc2cc(Cl)ccc2o1` [Compound 436, N-(3-(benzo[d]isothiazol-3-ylamino)propyl)-5-chlorobenzofuran-2-carboxamide], below 5 µM. On the same count and under the same terms, under `O=C(NCCNc1nsc2ccccc12)c1cccc(CO)c1` [Compound 416, N-(2-(benzo[d]isothiazol-3-ylamino)ethyl)-3-(hydroxymethyl)benzamide] stands above 5 µM; under `COc1ccc(-c2ccc(CN(CCCNc3nsc4ccccc34)S(=O)(=O)c3ccccc3C(F)(F)F)cc2)cc1` [Compound 270, N-(3-(benzo[d]isothiazol-3-ylamino)propyl)-N-((4′-methoxybiphenyl-4-yl)methyl)-2-(trifluoromethyl)benzenesulfonamide], below 5 µM; under `O=C(NCCNc1nsc2ccccc12)c1cc(C(F)(F)F)ccc1C(F)(F)F` [Compound 357, N-(2-(benzo[d]isothiazol-3-ylamino)ethyl)-2,5-bis(trifluoromethyl)benzamide], below 5 µM. Same read-out and setting: the result for `O=C(NCCCNc1nsc2ccccc12)c1ccc2[nH]ccc2c1` [Compound 450, N-(3-(benzo[d]isothiazol-3-ylamino)propyl)-1H-indole-5-carboxamide] reads below 5 µM; that for `COc1ccc(S(=O)(=O)NCCCNc2nsc3ccccc23)cc1OC` [Compound 264, N-(3-(benzo[d]isothiazol-3-ylamino)propyl)-3,4-dimethoxybenzenesulfonamide], below 5 µM. As for `COc1ccc(-c2ccc(CNCCCNc3nsc4nccnc34)cc2)cc1` [Entry 241, N^1-(isothiazolo[5,4-b]pyrazin-3-yl)-N^3-((4′-methoxybiphenyl-4-yl)methyl)propane-1,3-diamine], the IC50 was below 5 µM. As for `O=C(NCCCNc1nsc2ccccc12)c1ccc(O)c(Br)c1` [Compound 396, N-(3-(benzo[d]isothiazol-3-ylamino)propyl)-3-bromo-4-hydroxybenzamide], the IC50 was below 5 µM. In the case of `COc1ccc(-c2ccc(CN(C)CCCN(C)c3nsc4ccccc34)cc2)cc1` [Compound 347, N^1-(benzo[d]isothiazol-3-yl)-N^3-((4′-methoxybiphenyl-4-yl)methyl)-N^1,N^3-dimethylpropane-1,3-diamine], the IC50 was above 5 µM.

Regarding `COC(=O)c1ccccc1S(=O)(=O)NCCCNc1nsc2ccccc12` [Compound 243, methyl 2-(N-(3-(benzo[d]isothiazol-3-ylamino)propyl)sulfamoyl)benzoate], the IC50 was below 5 µM. For `COc1ccc(-c2ccc(CN(CCCNc3nsc4ccccc34)C(=O)CNC(C)C)cc2)cc1` [Compound 257, N-(3-(benzo[d]isothiazol-3-ylamino)propyl)-2-(isopropylamino)-N-((4′-methoxybiphenyl-4-yl)methyl)acetamide], the IC50 was below 5 µM. On to `O=C(NCCCNc1nsc2ccccc12)c1cc2ccc([N+](=O)[O-])cc2s1` [Compound 433, N-(3-(benzo[d]isothiazol-3-ylamino)propyl)-6-nitrobenzo[b]thiophene-2-carboxamide], for which the half-maximal inhibitory concentration (IC50) was below 5 µM. Turning to `COc1ccc(-c2ccc(CNCCCNc3nsc4ccccc34)cc2)cc1` [Compound 291, N^1-(benzo[d]isothiazol-3-yl)-N^3-((4′-methoxybiphenyl-4-yl)methyl)propane-1,3-diamine], the IC50 is below 5 µM. For the molecule `COc1cc(CNCCCNc2nsc3ccccc23)c(OCc2ccccc2)cc1OC` [Compound 327, N^1-(benzo[d]isothiazol-3-yl)-N^3-(2-(benzyloxy)-4,5-dimethoxybenzyl)propane-1,3-diamine], the IC50 was below 5 µM.

Regarding `O=S(=O)(NCCCNc1nsc2ccccc12)c1ccc(Br)c(C(F)(F)F)c1` [Compound 269, N-(3-(benzo[d]isothiazol-3-ylamino)propyl)-4-bromo-3-(trifluoromethyl)benzenesulfonamide], the IC50 is below 5 µM. On the same count and under the same terms, under `COc1ccc(-c2cccc(C(=O)NCCNc3nsc4ccccc34)c2)cc1` [Compound 371, N-(2-(benzo[d]isothiazol-3-ylamino)ethyl)-4′-methoxybiphenyl-3-carboxamide] stands below 5 µM.

The same assay, now with this note: Table 5; the head prints only IC50; b387 says Tables 5 and 6 hold Replicon reporter and Western blot results.
Regarding `O=C(NCCNc1nsc2ccccc12)c1ccc(F)c(F)c1` [Compound 359, N-(2-(benzo[d]isothiazol-3-ylamino)ethyl)-3,4-difluorobenzamide], the IC50 entry is “A, B”.
